Where only a bound is given, the exact number is not on record here.

This passage reports IC50 results from patent publication US11185531B2, “Arginine methyltransferase inhibitors and uses thereof” (Epizyme, Inc., priority 2013, dated 2021).

The assay concerns the target T1, Human CARM1 (PRMT4) (Homo sapiens, UniProt Q86X55).
T1 construct: Flag-CARM1-His was eluted with 200 ug/ml FLAG peptide in buffer A; made in house; host or cells: HEK 293F cells (BacMam baculovirus, pFastBacMam)
T1 sequence (Q86X55 1-585 isoform Q86X55-1): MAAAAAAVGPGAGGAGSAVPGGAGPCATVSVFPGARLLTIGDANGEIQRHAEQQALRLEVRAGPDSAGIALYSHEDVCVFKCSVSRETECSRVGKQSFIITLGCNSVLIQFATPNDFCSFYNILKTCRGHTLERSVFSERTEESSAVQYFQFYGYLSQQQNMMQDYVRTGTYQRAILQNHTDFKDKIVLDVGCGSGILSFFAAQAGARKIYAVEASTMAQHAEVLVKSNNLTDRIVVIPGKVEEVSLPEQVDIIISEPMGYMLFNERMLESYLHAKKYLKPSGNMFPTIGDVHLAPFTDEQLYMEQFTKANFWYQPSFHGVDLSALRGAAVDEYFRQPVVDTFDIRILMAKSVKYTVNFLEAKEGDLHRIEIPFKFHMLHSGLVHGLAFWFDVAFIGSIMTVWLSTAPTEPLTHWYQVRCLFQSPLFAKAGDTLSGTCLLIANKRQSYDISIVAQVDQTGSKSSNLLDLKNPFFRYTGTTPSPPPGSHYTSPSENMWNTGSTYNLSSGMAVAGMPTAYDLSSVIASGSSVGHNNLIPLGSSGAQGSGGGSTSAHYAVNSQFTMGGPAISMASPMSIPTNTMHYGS
As to the kind of experiment: CARM1 Biochemical Assay (3H-SAM Flashplate, peptide substrate). The following applies: 30 min preincubation. From the text:
Peptide representative of human histone H3 residues 16-30 was synthesized with an N-terminal linker-affinity tag motif and a C-terminal amide cap by 21st Century Biochemicals. The peptide was purified by high-performance liquid chromatography (HPLC) to greater than 95% purity and confirmed by liquid chromatography mass spectrometry (LC-MS). The sequence was Biot-Ahx-[…]-amide and contained a monomethylated arginine at position 26 (SEQ ID NO:14).
Human CARM1 (PRMT4) (NM_199141.1) transcript clone was amplified from an HEK 293 cDNA library, incorporating a flanking 5′ sequence encoding a FLAG tag ([…]) (SEQ ID NO:6) fused directly to Ala 2 of CARM1 and 3′ sequence encoding a hexa His sequence ([…]) (SEQ ID NO:15) fused directly to Ser 608. The gene sequence encoding isoform1 containing a deletion of amino acids 539-561 was amplified subsequently and subcloned into pFastBacMam (Viva Biotech).
Column was washed with 500 mM NaCl in buffer A and Flag-CARM1-His was eluted with 200 ug/ml FLAG peptide in buffer A. Pooled fractions were dialyzed in 20 mM Tris, 150 mM NaCl, 5% glycerol and 1 mM DTT, pH 7.8. The purity of recovered protein was 94.
General Procedure for CARM1 Enzyme Assays on Peptide Substrates.
The assays were all performed in a buffer consisting of 20 mM Bicine (pH=7.6), 1 mM TCEP, 0.005% BSG, and 0.002% Tween 20, prepared on the day of use. Compounds in 100% DMSO (1 ul) were spotted into a polypropylene 384-well V-bottom plates (Greiner) using a Platemate Plus outfitted with a 384-channel head (Thermo Scientific). DMSO (1 ul) was added to Columns 11, 12, 23, 24, rows A-H for the maximum signal control and 1 ul of SAH, a known product and inhibitor of CARM1, was added to columns 11, 12, 23, 24, rows I-P for the minimum signal control. A cocktail (40 ul) containing the CARM1 enzyme was added by Multidrop Combi (Thermo-Fisher). The compounds were allowed to incubate with CARM1 for 30 min at room temperature, then a cocktail (10 ul) containing ^3H-SAM and peptide was added to initiate the reaction (final volume=51 ul). The final concentrations of the components were as follows: CARM1 was 0.25 nM, ^3H-SAM was 30 nM, peptide was 250 nM, SAH in the minimum signal control wells was 1 mM, and the DMSO concentration was 2%. The assays were stopped by the addition of non-radiolabeled SAM (10 ul) to a final concentration of 300 uM, which dilutes the ^3H-SAM to a level where its incorporation into the peptide substrate is no longer detectable. 50 ul of the reaction in the 384-well polypropylene plate was then transferred to a 384-well Flashplate and the biotinylated peptides were allowed to bind to the streptavidin surface for at least 1 hour before being washed once with 0.1% Tween20 in a Biotek ELx405 plate washer. The plates were then read in a PerkinElmer TopCount plate reader to measure the quantity of ^3H-labeled peptide bound to the Flashplate surface, measured as disintegrations per minute (dpm) or alternatively, referred to as counts per minute (cpm).
Where dpm=disintegrations per minute, cmpd=signal in assay well, and min and max are the respective minimum and maximum signal controls.
Where top and bottom are the normally allowed to float, but may be fixed at 100 or 0 respectively in a 3-parameter fit. The Hill Coefficient normally allowed to float but may also be fixed at 1 in a 3-parameter fit. Y is the % inhibition and X is the compound concentration.

For orientation: IC50 means the concentration needed to halve the response being measured. Lower therefore signals greater potency in that assay. `CNCCN(C)Cc1c[nH]nc1C#Cc1cccc(OC)c1` [Compound 1] came in with an IC50 of 101 to 1000 nM. Next, `CNCCN(C)Cc1c[nH]nc1C#Cc1ccc(C(C)(C)C)cc1` [Compound 2]: 101 to 1000 nM; `CNCCN(C)Cc1c[nH]nc1C#Cc1ccccc1` [Compound 3]: 1010 to 3000 nM. Next, `CNCCN(C)Cc1c[nH]nc1C#Cc1ccc(F)cc1` [Compound 4]: 101 to 1000 nM; `CNCCN(C)Cc1c[nH]nc1/C=C/c1ccc(-c2ccccc2)cc1` [Compound 5]: 101 to 1000 nM; `CNCCN(C)Cc1c[nH]nc1/C=C/c1ccc(C(F)(F)F)cc1` [Compound 6]: 101 to 1000 nM.

In turn, `CNCCN(C)Cc1c[nH]nc1/C=C/c1ccc(OC)cc1` [Compound 7] returned an IC50 of less than 100 nM.

`Cc1ccc(/C=C/c2n[nH]cc2CN(C)CCN)cc1` [Compound 8] returned an IC50 of 101 to 1000 nM. Next, `COc1cc(/C=C/c2n[nH]cc2CN(C)CCN)cc(OC)c1` [Compound 11]: less than 100 nM. The figure for `CN(CCN)Cc1c[nH]nc1/C=C/c1ccc(F)cc1F` [Compound 13] is 101 to 1000 nM. Next, `CN(CCN)Cc1c[nH]nc1/C=C/c1cc(C(F)(F)F)cc(C(F)(F)F)c1` [Compound 14]: 101 to 1000 nM; `CN(CCN)Cc1c[nH]nc1/C=C/c1cc(F)cc(F)c1` [Compound 15]: 101 to 1000 nM; `CN(CCN)Cc1c[nH]nc1/C=C/c1cccc(C(F)(F)F)c1` [Compound 16]: 101 to 1000 nM. Take `COc1cccc(/C=C/c2n[nH]cc2CN(C)CCN)c1` [Compound 17]: the IC50 was less than 100 nM. Next, `CN(CCN)Cc1c[nH]nc1/C=C/c1ccc(C(F)(F)F)cc1` [Compound 18]: less than 100 nM; `COC/C=C/c1n[nH]cc1CN(C)CCN` [Compound 19]: 3010 to 10000 nM. In the case of `CN(CCN)Cc1c[nH]nc1/C=C/c1cccc(F)c1` [Compound 20], the IC50 is 101 to 1000 nM. Next, `CN(CCN)Cc1c[nH]nc1C1CCCCC1` [Compound 22]: 3010 to 10000 nM; `CN(CCN)Cc1c[nH]nc1CCc1ccc(F)cc1` [Compound 23, N^1-((3-(4-fluorophenethyl)-1H-pyrazol-4-yl)methyl)-N^1-methylethane-1,2-diamine]: 1010 to 3000 nM.
